The results in this text go back to patent US12416101B2, “Genetically-encoded macrocyclic peptide libraries bearing a pharmacophore” (THE GOVERNORS OF THE UNIVERSITY OF ALBERTA, priority 2018, dated 2025).

Residues, ends and D or L forms follow the SMILES beside them.

Data set [1] can be described thus: Solubility in water. The data set is classed as physicochemical.
Data set [2] relates to phage. In words: Toxicity of hydrazines to phage, plaque forming assay. More on the design: species or system bacteriophage. On the procedure: In the reaction between phage diketone and hydrazine, some hydrazine derivatives cause toxicity to phage, leading to elimination of >99.999% of infective phage particles in less than 5 minutes (as determined by plaque forming assay). For example, treating phage with 2 mM phenyl hydrazine for 2 minutes decreased the number of infective particles from 10^5 to zero. The source and mechanism of toxicity was not obvious and was difficult to systematize: it depended on the concentration of hydrazine and its nature, as well as some sporadic factors (preparation of solution). Toxicity dependence on concentration of hydrazine was not linear. In many cases, hydrazine was lethal to phage eliminating all infective particles before the reaction was completed. […] Optimal location conditions between phage-diketone and hydrazine derivatives are in the presence of 1-2 mM metal chelator such as EDTA.

Consider `CC(C)[C@H](NC(=O)[C@H](CS)NC(=O)[C@H](CCC(N)=O)NC(=O)[C@@H](N)CO)C(=O)N[C@@H](CCCNC(=N)N)C(=O)N[C@@H](CO)C(=O)N[C@@H](CS)C(=O)O` [SQCVRSC] (H-SQCVRSC-OH; N-terminus and C-terminus assumed), for which the solubility in water result in data set [1] is “high”. Regarding `NNc1ccccc1` [phenyl hydrazine], in data set [2] (2 to 20 mM phenyl hydrazine in the presence of 1 to 2 mM EDTA, several hours), the “decrease in the number of infective particles” value is on record as “did not show any significant decrease”. The “number of infective particles after treatment” value in data set [2] (phage treated with 2 mM phenyl hydrazine for 2 minutes, starting number 10^5, no chelator) is “zero”.
